Experimental data reported in patent US9045525B2, “Amyloid β-protein-specific production-inhibiting polypeptide” (THE DOSHISHA, priority 2012, dated 2015).
Peptide text beside a SMILES is read from it.

Columns and labels:
[1] = Intraperitoneal administration of FITC-modified polypeptide, localization around the hippocampus; format: in vivo; settings: FITC-modified #4 polypeptide, 150 mg/kg intraperitoneally, three consecutive days, mouse
Description: Subsequently, FITC-modified #4 polypeptide prepared by using a known method was intraperitoneally administered to a mouse. The dose was 150 mg/kg, and the administration was conducted for three consecutive days. Four days after, the mice were euthanized to prepare test pieces of tissue around the hippocampus. As the negative control experiment, DMSO was administered in place of FITC-modified #4 polypeptide.
In the figure, “CPLV” indicates the area called the “choroid plex” for producing cerebrospinal fluid.

[2] = target: T1, APP in 7WD10 cells overexpressing APP (Homo sapiens, UniProt P05067); test: Analysis of subcellular distribution in 7WD10 cells; format: cell-based; settings: Biotin-modified #4 polypeptide
T1 construct: expressed in transfected cells; host or cells: 7WD10
Description: Biotin-modified #4 polypeptide was prepared using a known method. This polypeptide was allowed to react with CHO-K1 cells and the 7WD10 cells mentioned above, and the resulting cells were immobilized, and then treated with Triton X-100. Thereafter, avidin-modified Alexa488 was reacted with the above. As the negative control experiment, an experiment was conducted reacting avidin-modified Alexa 488 in place of Biotin-modified #4 polypeptide.

CHO-K1 cells = test: Mouse Aβ production inhibition experiment, CHO-K1 cells; format: cell-based; settings: polypeptide 20 μM, CHO-K1 cells expressing mouse-type APP, anti-mouse Aβ antibody Western blotting
Description: #1, #2, and #4 polypeptides were added to the culture solutions of CHO-K1 cells and Neuro 2A cells (N2A) in such a manner that the final concentration was 20 μM. As a control, L685458 (i.e., a γ-secretase inhibitor) and DMSO were added thereto in such a manner that the final concentration was 20 μM.
Thereafter, Aβ contained in the cell culture medium was identified by using a Western-blotting method with an antibody (anti-mouse Aβ antibody) that recognizes Aβ. […] In the figure, L indicates L685458, which is a γ-secretase inhibitor (final concentration of 1 μM).

[3] = tested on: Notch transiently expressed in CHO-K1 cells (7WD10 cells); test: Cleavage of Notch protein (NICD) in 7WD10 cells; format: cell-based; settings: polypeptide 1, 5, 10, 20, and 50 μM
Description: (§1) An experiment was conducted wherein #1, #2, and #4 polypeptides were reacted with CHO-K1 cells (7WD10 cells) that stably expressed APP protein and transiently expressed Notch to confirm the production of Aβ protein and cleavage of Notch protein.

[4] = tested on: CHO-K1 cells (7WD10 cells) that stably expressed APP protein; test: Aβ protein production inhibition experiment in 7WD10 cells (sAPPβ, βCTF, Aβ); format: cell-based; settings: polypeptide 1, 5, 10, 20, and 50 μM
Description: as §1

SMILES: CC[C@H](C)[C@H](NC(=O)[C@H](CC(=O)O)NC(=O)[C@@H](NC(=O)[C@@H](NC(=O)[C@H](CS)NC(=O)[C@H](Cc1ccc(O)cc1)NC(=O)[C@H](CS)NC(=O)[C@H](CC(=O)O)NC(=O)[C@H](CS)NC(=O)[C@@H](NC(=O)[C@@H](NC(=O)[C@H](CC(C)C)NC(=O)[C@H](Cc1c[nH]cn1)NC(=O)[C@H](CCSC)NC(C)=O)C(C)C)[C@@H](C)CC)[C@@H](C)O)[C@@H](C)O)C(=O)N[C@@H](CS)C(=O)N[C@@H](Cc1ccc(O)cc1)C(=O)N[C@@H](CS)C(=O)N[C@@H](Cc1ccc(O)cc1)C(=O)N[C@@H](CO)C(=O)N[C@@H](CS)C(=O)N[C@H](C(=O)N1CCC[C@H]1C(=O)N[C@@H](CC(N)=O)C(N)=O)[C@@H](C)O [#4] (Ac-MHLVICDCYCTTDICYCYSCTPN-NH2)
- presence of polypeptide in CA1 region (fluorescent microscopy) [1]: a portion dyed green indicating the presence of #4 polypeptide was confirmed
- presence of polypeptide in choroid plex (CPLV) [1]: a portion dyed green indicating the presence of #4 polypeptide was confirmed in the blood vessel
- presence of polypeptide in dentate gyrus (DG) [1]: a portion dyed green indicating the presence of #4 polypeptide was also confirmed
- entry into cells ([2]; CHO-K1 and 7WD10 cells): entering the cells
- binding to intracellular APP ([2]; avidin-modified Alexa488, 7WD10 cells overexpressing APP): remarkably binded also to the intracellular APP
- production of Aβ in the culture medium (CHO-K1 cells): the production of Aβ in the culture medium was reduced
- abundance of the NICD in the cell lysate [3]: not decreased
- Aβ protein in the cell culture medium (released Aβ) [4]: decreased depending on the concentration
- Aβ protein in the cell lysate (intracellular Aβ) [4]: no longer present in a manner dependent on the final concentration
- sAPP in the cell lysate [4]: no longer present in a manner dependent on the final concentration
- βCTF (C99) in the cell lysate [4]: no longer present in a manner dependent on the final concentration
